Data taken from US9403916B2, “Polysaccharide-and polypeptide-based block copolymers, vesicles constituted by these copolymers and use thereof” (priority 2008, dated 2016).

Columns and labels:
cells of rat glioma C6 = assay: Cellular viability (toxicity) MTT test; format: cell-based; details: 48 h, read-out: IC50 (concentration for which half of the cells remain viable)
Description: Experiments of toxicity and release in vitro were performed using vesicles based on hyaluronic acid-block-poly(γ-benzyl L-glutamate) diblock copolymer prepared in Example 6, containing 11% of doxorubicin. The in-vitro experiments were performed on cells of rat glioma C6, in Dulbecco's modified Eagle's medium (DMEM) containing 5% of foetal calf serum. The C6 cells (5×10^5 cells) are placed in bottles of 10 cm diameter and are grown in 10 ml of culture medium containing penicillin (10000 μg/mL), streptomycin (10000 μg/mL) and amphotericin B (25 μg/mL) [Invitrogen Corporation] in an incubator at 37° C. in a controlled atmosphere with 5% CO2. For the tests of cellular viability (or toxicity), C6 cells were incubated in a 24-well plate (15×10^4 cells per well), for 24 h. Viability was determined by a conventional test with tetrazolium salt MTT (3-(4,5-dimethylthiazol-2-yl)-2,5-diphenyl tetrazolium bromide). The tetrazolium that it contains is reduced to formazan by the mitochondrial succinate dehydrogenase of the active living cells. The colour of the medium then changes from yellow to purplish-blue. The intensity of this coloration is proportional to the number of living cells present during the test. Analysis is performed by spectrophotometry (U-2800A, HITACHI), measuring the absorbance at 570 nm. […]

[1] = tested on: DMBA-induced tumour in female Sprague-Dawley rats; assay: Antitumour efficacy in DMBA-induced tumour, tumour regression and survival; format: in vivo; details: rat, single intravenous dose 5 mg/kg doxorubicin
Description: Female Sprague-Dawley rats aged 8 weeks (120-140 g) were used in a study of tumour regression.
7,12-dimethylbenz[α]anthracene (DMBA) was administered orally (in soya oil) to the animals in 3 doses of 45 mg/kg at one-week intervals, to generate the tumour.
The treatment with doxorubicin was given 10 weeks after the last dose of DMBA. The width of the tumour (w) and its length (l) were recorded with callipers and the size of the tumour was calculated from the formula (w×l^2/2).
After 10 weeks from tumour induction, the animals with tumours were separated and divided randomly into different treatment groups, then treated with a single dose of 250 μl of doxorubicin by intravenous route at 5 mg/kg, either in the form of free doxorubicin, or in the form of doxorubicin encapsulated in the micellar vesicles of Example 6.
The control group received a single dose of 250 μl of PBS buffer (pH 7.4) by the intravenous route.
The study was terminated […] after treatment.
Observation of the survival of the animals with a tumour, which were treated, was continued until 60 days after treatment.

`COc1cccc2c1C(=O)c1c(O)c3c(c(O)c1C2=O)C[C@@](O)(C(=O)CO)C[C@@H]3O[C@H]1C[C@H](N)[C@H](O)[C@H](C)O1` [free doxorubicin, doxorubicin] was tested, and the IC50 (cells of rat glioma C6) was 840 nM, the “tumour growth in comparison with control group treated with PBS” value [1] was “significantly inhibit tumour growth” and the “tumour regression after 15 days of treatment” value [1] was “regression reaches a plateau”.
